Laboratory results published in US5801182A, “Amine substituted compounds” (Cell Therapeutics, Inc., priority 1995, dated 1998).

Tested on: Mouse bone marrow cells (CFU-GM)
Experiment: CFU-GM colony assay, effect on normal bone marrow cells
Assay type: cell-based
Details: vs vinblastine, 5-fluorouracil, doxorubicin or cisplatinum
Excerpt: This example illustrates a method for examining an effect of the inventive compounds, showing potential as cancer therapies on normal cells. This assay has been used clinically to evaluate recovery of patients' marrow following chemotherapy or radiation. In this specific example, inventive compounds nos.
Mouse bone marrow cells are useful in this assay because they produce colonies, which can later be counted, in culture. The colonies are called colony forming unit-granulocyte macrophage (CFU-GM) and depend on a source of colony stimulating factor for growth.
Cells were cultured with inventive compounds nos. 3563, 3576, 3581, 3584 and 4500, to comparatively evaluate an effect on normal cells of inventive compounds identified as potential cancer therapies. Procedurally, cells were incubated for 8 hours with various concentrations of these compounds. A negative control without any compound was simultaneously prepared. After 8 hours, the incubated cells were washed thoroughly and a consistent number were subsequently plated to obtain CFU-GM. Colonies were permitted to grow for 7 days at 37° C., in 5% CO2. After 7 days of growth, colony growths were counted microscopically. Data obtained in this assay for inventive compounds nos. 3563, 3576, 3581, 3584 and 4500 are plotted in FIGS. 12, 13, 14, 15 and 16, respectively. The data in the figures are shown to compare the colonies counted for cells incubated with varying concentrations of the compounds tested against the negative control, without compound. At concentrations ranging from 5 to 30 μM, more colonies existed for cells incubated with the inventive potential cancer compound than with known, chemotherapeutic agents. Compound no.

| Structure (SMILES) | effect on normal cells compared to known chemotherapeutic compounds in vitro |
| --- | --- |
| CCCCCCCCCCNCCCCCCCCCCCn1c(=O)c2c(ncn2C)n(C)c1=O [compound 3581] | less deleterious to normal cells |
| CCCCCCCCCCCCCCCCNCCCCCCCCCCCn1c(=O)c2c(ncn2C)n(C)c1=O [compound 3584] | less deleterious to normal cells |

Tested on: HIV long terminal repeat (LTR) promotor
Experiment: Inhibition of reporter gene (alkaline phosphatase) expression directed by HIV-LTR promotor in 293-EBNA cells
Assay type: cell-based
Details: Human immunodeficiency virus 1; reporter gene directed by HIV-LTR promotor in 293-EBNA cells; FIGS. 17, 19, 21
Excerpt: This example is an assay used to measure anti-viral activity of inventive compounds nos. […] This assay is predictive of anti-viral activity for retroviruses. Specifically,a plasmid construct, pHIV.AP, using the human immunodeficiency virus (HIV) long terminal repeat (LTR) promotor [derived from pU3R-III CAT (Sodroski et al. Science, Vol. 227, page 171, 1985) to direct the expression of secreted human placental alkaline phosphatase reporter gene and an expression vector for a 72 amino acids tat protein from HIV (Frankel et al., Cell, Vol. 55, pages 1189-1193, 1988) were transfected into a tumor cell line (e.g., 293-EBNA cells). The stably transfected cells were treated with various concentrations of the inventive compounds. The expression of the alkaline phosphatase (AP) reporter gene in the individual cultures was then measured by following the change in absorbance at A405 of cell conditioned media in the presence of a suitable substrate (e.g., ortho-nitrophenol phosphate). Berger et al., Gene, Vol. 66, pages 1-10, 1988.

| Structure (SMILES) | IC50 |
| --- | --- |
| CCCCCCCCCCNCCCCCCCCCCCn1c(=O)c2c(ncn2C)n(C)c1=O [compound 3581] | < 5 µM |
| COc1cc(CNCCCCCCCCCCCn2c(=O)c3c(ncn3C)n(C)c2=O)cc(OC)c1OC [compound no. 3593] | < 25 µM |
| CCCCCCCCCCCCCNCCCCCCCCCCCn1c(=O)c2c(ncn2C)n(C)c1=O [compound 4507] | < 4 µM |
| CCCCCCCCCCCCCCCCNCCCCCCCCCCCn1c(=O)c2c(ncn2C)n(C)c1=O [compound 3584] | < 10 µM |
| CCCCCCNCCCCCCCCCCCn1c(=O)c2c(ncn2C)n(C)c1=O [compound no. 3580] | < 10 µM |
| CCCCCCCCCCCCCCCNCCCCCCCCCCCn1c(=O)c2c(ncn2C)n(C)c1=O [compound no. 4508] | < 10 µM |
| CCCCCCCCCCCCCCNCCCCCCCCCCCn1c(=O)c2c(ncn2C)n(C)c1=O [compound 3582] | < 5 µM |
| CCCCCCN(CCCCCC)CCCCCCCCCCCn1c(=O)c2c(ncn2C)n(C)c1=O [compound no. 3590] | < 20 µM |

Tested on: not listed separately
Experiment: Viability of 293-EBNA cells (alamarBlue colorimetric assay)
Assay type: cell-based
Details: human, 293-ebna cells; alamarBlue; FIGS. 18, 20, 21; read-out: LD50, 293-EBNA cells
Experimental: (§1) The effect of respective inventive compounds on the viability of 293-EBNA cells was measured by a colorimetric assay that uses the alamarBlue® dye (purchased from Alamar Biosciences, Inc.) to report cell proliferation, viability and cytotoxicity. This dye is an oxidation-reduction (Redox) indicator that changes color in response to chemical reduction of growth medium resulting from cell growth. The general procedure involves adding alamarBlue® in an amount equal to 10% of the culture volume, returning the culture to incubator for four hours, and measuring the absorbance at 570 nm after subtraction of background absorbance at 600 nm.

| Structure (SMILES) | CC50 |
| --- | --- |
| CCCCCCCCCCNCCCCCCCCCCCn1c(=O)c2c(ncn2C)n(C)c1=O [compound 3581] | < 10 µM |
| CCCCCCCCCCCCCNCCCCCCCCCCCn1c(=O)c2c(ncn2C)n(C)c1=O [compound 4507] | < 7 µM |
| CCCCCCCCCCCCCCCCNCCCCCCCCCCCn1c(=O)c2c(ncn2C)n(C)c1=O [compound 3584] | < 15 µM |
| CCCCCCNCCCCCCCCCCCn1c(=O)c2c(ncn2C)n(C)c1=O [compound no. 3580] | < 30 µM |
| CCCCCCCCCCCCCCCNCCCCCCCCCCCn1c(=O)c2c(ncn2C)n(C)c1=O [compound no. 4508] | < 10 µM |
| CCCCCCCCCCCCCCNCCCCCCCCCCCn1c(=O)c2c(ncn2C)n(C)c1=O [compound 3582] | < 5 µM |

Tested on: 293-EBNA cells
Experiment: as above
Assay type: cell-based
Details: not given
Experimental: as §1

| Structure (SMILES) | cytotoxicity to 293-EBNA cells (in words) |
| --- | --- |
| COc1cc(CNCCCCCCCCCCCn2c(=O)c3c(ncn3C)n(C)c2=O)cc(OC)c1OC [compound no. 3593] | little cytotoxicity, even at >32 μM |
| CCCCCCNCCCCCCCCCCCn1c(=O)c2c(ncn2C)n(C)c1=O [compound no. 3580] | minimal cytotoxicity |
| CCCCCCN(CCCCCC)CCCCCCCCCCCn1c(=O)c2c(ncn2C)n(C)c1=O [compound no. 3590] | little cytotoxicity even at >32 μM |
